Assay results from patent publication US20020162794A1, “Anaerobic digestion” (priority 2001, published 2002).
Values joined by “and” are separate entries in the source; they are usually repeats but may differ in a detail not shown here. Identical values can stand only once.

What was measured:
[1] = test system: mixed culture from a publicly owned anaerobic digester; test: Identification of predominant colony types in the mixed culture; assay type: cell-based
[2] = test system: mixed culture from a publicly owned anaerobic digester (domestic sewage sludge); test: Chemical Oxygen Demand (COD) of batch anaerobic digester reactors
Protocol: Two tests were run in which sodium formate in concentrations ranging from a few parts per million (ppm) up to ten percent (10%) on a mass basis were added to samples taken from a publicly owned anaerobic digester. The samples were first cultured in laboratory sized batch reactors. The twelve batch reactors were then sampled, and studied for periods of up to fifty-five days. The process variables that were monitored included COD (Chemical Oxygen Demand), TS (Total Solids), TVS (Total Volatile Solids) and the pH of the culture. Time and the initial sodium formate concentration level were the independent variables. Finally measurements were also made of the bacterial counts at the beginning and at the end of the fifty five day period. These experimental observations permitted partial identifications of the predominant bacterial colonies still viable in each of the twelve reactors used for each trial of the laboratory study.
Chemical Oxygen Demand (COD) measurements
To perform this measurement, a 5 ml of the sample from each of the 12 reactors is taken and diluted 10-fold to 50 ml. 5 ml of the now diluted sample is again diluted 10 fold to 50 ml. This double dilution represents a 100-fold dilution of the original sample. 2 ml of these diluted samples are put into standard COD test tubes. The test tubes are closed and shaken vigorously. The 13 (COD) test tubes (one is a control) are then heated to 150 deg. C for two hours. The UV spectrometer is calibrated by first analyzing the test tube with pure distilled water as the zero COD or control sample.
The sample test tubes are then analyzed for COD using UV spectrometer after inputting the method number and adjusting the frequency of UV rays to correspond to a sample with a high organic loading range. The readings that were obtained in units of mg/liter are multiplied by 100 to correct for the dilution procedure and to get COD concentration level for the original sample. COD is indicative of the organic substrate load level in the wastewater being treated or tested.
Municipal sludge from the city of Lubbock, Wastewater Treatment Plant was digested in 12 batch digesters. Using twelve batch reactors allowed the collection of control reactors data (i.e., no formate in the reactors) in triplicate, titration studies of increasing formate concentration, and duplicates/triplicates of varying formate concentration. Experiments were conducted in the laboratories of Texas Tech University.
The substrate taken was 2 parts of 50 g/liter sucrose solution mixed with 1 part of digested municipal sludge which acts as the seed material for incorporation of microbes into the reactors. The experiments were started with the following protocol. [drawing 1]

## O=C[O-].[Na+] [sodium formate]
[1]; 10% level
  colony types identified: only Cellulomonas cellulans was identified along with large masses of yeast cells
[1]; 1000-5000 ppm
  bio-diversity of the mixed culture: increase the bio-diversity of the mixed culture
[1]; 1000 ppm, control had two
  number of predominant colony types: eight
[1]; lower levels (≦5000 ppm)
  growth of colonies in the mixed culture: facilitate growth of some of the more dormant colonies in the mixed culture
[2]; 1/4/99 run, 100 ppm, 0 Day
  COD Concentration: 29.5 g/L
[2]; 1/4/99 run, 100 ppm, 15 days
  COD Concentration: 43.8 g/L
[2]; 1/4/99 run, 100 ppm, 30 days
  COD Concentration: 39.1 g/L
[2]; 1/4/99 run, 1250 ppm, 0 Day
  COD Concentration: 40.3 g/L
[2]; 1/4/99 run, 1250 ppm, 15 days
  COD Concentration: 42.7 g/L
[2]; 1/4/99 run, 1250 ppm, 30 days
  COD Concentration: 32 g/L
[2]; 1/4/99 run, 2500 ppm, 0 Day
  COD Concentration: 17.1 g/L
[2]; 1/4/99 run, 2500 ppm, 15 days
  COD Concentration: 41.4 g/L
[2]; 1/4/99 run, 2500 ppm, 30 days
  COD Concentration: 38.9 g/L
[2]; 1/4/99 run, 3750 ppm, 0 Day
  COD Concentration: 38 g/L
[2]; 1/4/99 run, 3750 ppm, 15 days
  COD Concentration: 40.7 g/L
[2]; 1/4/99 run, 3750 ppm, 30 days
  COD Concentration: 47.8 g/L
[2]; 1/4/99 run, 5000 ppm, 0 Day
  COD Concentration: 37.5 g/L
[2]; 1/4/99 run, 5000 ppm, 15 days
  COD Concentration: 43.1 g/L
[2]; 1/4/99 run, 5000 ppm, 30 days
  COD Concentration: 46.6 g/L
[2]; 1/4/99 run, 6250 ppm, 0 Day
  COD Concentration: 34.3 g/L
[2]; 1/4/99 run, 6250 ppm, 15 days
  COD Concentration: 44.1 g/L
[2]; 1/4/99 run, 6250 ppm, 30 days
  COD Concentration: 38.1 g/L
[2]; 1/4/99 run, 7500 ppm, 0 Day
  COD Concentration: 36.7 g/L
[2]; 1/4/99 run, 7500 ppm, 15 days
  COD Concentration: 33 g/L
[2]; 1/4/99 run, 7500 ppm, 30 days
  COD Concentration: 55.8 g/L
[2]; 1/4/99 run, 8750 ppm, 0 Day
  COD Concentration: 24.9 g/L
[2]; 1/4/99 run, 8750 ppm, 15 days
  COD Concentration: 26.1 g/L
[2]; 1/4/99 run, 8750 ppm, 30 days
  COD Concentration: 53.8 g/L
[2]; 1/4/99 run, 10000 ppm, 0 Day
  COD Concentration: 33.8 g/L
[2]; 1/4/99 run, 10000 ppm, 15 days
  COD Concentration: 36.1 g/L
[2]; 1/4/99 run, 10000 ppm, 30 days
  COD Concentration: 45.5 g/L
[2]; 1/4/99 run, average 25 ppm (reactors 0, 0, 0, 100 ppm), 0 Day
  COD Concentration, Average: 37.825 g/L
[2]; 1/4/99 run, average 25 ppm (reactors 0, 0, 0, 100 ppm), 15 days
  COD Concentration, Average: 51.23 g/L
[2]; 1/4/99 run, average 25 ppm (reactors 0, 0, 0, 100 ppm), 30 days
  COD Concentration, Average: 39.125 g/L
[2]; 1/4/99 run, average 2500 ppm (1250, 2500, 3750 ppm), 0 Day
  COD Concentration, Average: 31.8 g/L
[2]; 1/4/99 run, average 2500 ppm (1250, 2500, 3750 ppm), 15 days
  COD Concentration, Average: 41.6 g/L
[2]; 1/4/99 run, average 2500 ppm (1250, 2500, 3750 ppm), 30 days
  COD Concentration, Average: 39.57 g/L
[2]; 1/4/99 run, average 6250 ppm (5000, 6250, 7500 ppm), 0 Day
  COD Concentration, Average: 36.17 g/L
[2]; 1/4/99 run, average 6250 ppm (5000, 6250, 7500 ppm), 15 days
  COD Concentration, Average: 40.07 g/L
[2]; 1/4/99 run, average 6250 ppm (5000, 6250, 7500 ppm), 30 days
  COD Concentration, Average: 46.83 g/L
[2]; 1/4/99 run, average 8750 ppm (7500, 8750, 10000 ppm), 0 Day
  COD Concentration, Average: 31.8 g/L
[2]; 1/4/99 run, average 8750 ppm (7500, 8750, 10000 ppm), 15 days
  COD Concentration, Average: 31.73 g/L
[2]; 1/4/99 run, average 8750 ppm (7500, 8750, 10000 ppm), 30 days
  COD Concentration, Average: 51.7 g/L
[2]; 7/1/99 run (Tables 5, 6), 1000 ppm, 0 Day (with formate addition)
  COD Concentration: 52 g/L and 60.8 g/L and 48.6 g/L
[2]; 7/1/99 run (Tables 5, 6), 1000 ppm, 7 Day
  COD Concentration: 65.8 g/L and 68.2 g/L and 50.3 g/L
[2]; 7/1/99 run (Tables 5, 6), 1000 ppm, 1 days, listed as Format
  COD Concentration: 51.5 g/L and 60.3 g/L and 57.2 g/L
[2]; 7/1/99 run (Tables 5, 6), 1000 ppm, 1 days, listed as Formate
  COD Concentration: 57.2 g/L
[2]; 7/1/99 run (Tables 5, 6), 1000 ppm, 4 days
  COD Concentration: 52 g/L and 51.4 g/L and 52.3 g/L
[2]; 7/1/99 run (Tables 5, 6), 1000 ppm, 9 days
  COD Concentration: 54.9 g/L and 48.5 g/L and 47.7 g/L
[2]; 7/1/99 run (Tables 5, 6), 1000 ppm, 16 days
  COD Concentration: 33.1 g/L and 41.4 g/L and 33.6 g/L
[2]; 7/1/99 run (Tables 5, 6), 1000 ppm, 55 days
  COD Concentration: 34 g/L and 46.6 g/L and 38 g/L
[2]; 7/1/99 run (Tables 5, 6), 5000 ppm, 0 Day (with formate addition)
  COD Concentration: 60.3 g/L
[2]; 7/1/99 run (Tables 5, 6), 5000 ppm, 7 Day
  COD Concentration: 52.2 g/L
[2]; 7/1/99 run (Tables 5, 6), 5000 ppm, 1 days
  COD Concentration: 46.8 g/L and 48.8 g/L
